# Patent US4231936A, “Mitomycin C derivatives” (priority 1977, dated 1980)
# Columns and labels:
# [1] = Number of leucocytes in peripheral blood of Sarcoma-180 bearing mice (Example IV); type: in vivo, dd-strain mice; set-up: key: D*: All mice in the group died
# Description: (§1) The following treatment was performed to make these compounds water-soluble for use in the experiments. A test compound was dissolved in ethanol (about 1000 times by weight) HCO-60, a commercially available surfactant was added in amounts of about 3 times by weight. The mixture was well stirred to dissolve the HCO-60. Ethanol was removed from the solution under reduced pressure by using a rotary evaporator. After this, a test solution was prepared by adding a suitable amount of a physiological saline solution with agitation.
# (§2) Sarcoma 180 cells were inoculated intraperitoneally into dd-strain mice. After 7 days following tumor implantation, ascites tumor cells were obtained from the mice. The cells were washed and a tumor cell suspension containing 5×10^7 cells per ml was prepared with physiological saline solution. 0.1 ml of the thus-prepared suspension containing 5×10^6 cells was inoculated into the left inguinal region of each of the test mice (dd-strain; weight 19±1 g; divided into groups, each group consisting of 5 mice). After 24 hours following the inoculation, the test compounds were administered to the mice individually and intraperitoneally. After 4 days following the inoculation, the peripherical blood of the treated mice was obtained by the puncture of the orbital vein. The number of the leucocytes in the peripheral blood was measured by using Toa Microcell Counter CC-108 (a commercial product of Toa Medical Electronics Co., Ltd., Japan). In order to evaluate the antitumor effects, the tumor was removed 7 days after the inoculation and weighed. Its weight was compared with the average weight of the tumors of the control group (untreated) to give the weight ratios (T/C) shown in Table 5.
# [2] = tested on: Staphylococcus aureus ATCC 6538P; assay: Minimum inhibitory concentration (Table I); type: cell-based
# Excerpt: (§3) Comparative data similarly obtained by using mitomycin A, mitomycin C and 7-N-phenyl mitomycin C are also shown in this table
# [3] = tested on: Shigella sonnei ATCC 9290; assay: Minimum inhibitory concentration (Table I); type: cell-based
# Excerpt: as §3
# [4] = tested on: Bacillus subtilis ATCC 10707; assay: Minimum inhibitory concentration (Table I); type: cell-based
# Excerpt: as §3
# [5] = tested on: Klebsiella pneumoniae ATCC 10031; assay: Minimum inhibitory concentration (Table I); type: cell-based
# Excerpt: as §3
# P-388 cells [6] = assay: Antitumor activity, P-388 leukemia intraperitoneally inoculated, compound i.p. (Example II); type: in vivo, CDF1 mice
# Description: as §1
# Seven-day-old leukemia cells obtained from the ascites of DBA/2 mice inoculated intraperitoneally with 10^6 P-388 cells were used. A cell suspension containing 5×10^6 cells per ml was prepared by using a sterilized physiological saline solution. The test mice (CDF1 mice, 20-25 g) were inoculated with 0.2 ml of the cell suspension containing 1×10^6 cells intraperitoneally. After 24 hours, the mice were divided into groups (each group consisting of 5 mice) and the test solutions were administered intraperitoneally once only. […] In order to evaluate the effects of the test samples, the average survival days were calculated 30 and 60 days after tumor implantation and compared with those of the control group (untreated group). Antitumor activities of the test compounds are indicated by ILS % (increase in life span%) on the basis of the control group.
# Solubility in water = type: physicochemical
# Sarcoma 180 cells = assay: Effect on Sarcoma-180, tumor weight ratio (Example IV); type: in vivo, dd-strain mice; set-up: key: D*: All mice in the group died
# Description: as §1, §2
# P-388 cells [7] = assay: Antitumor effect, P-388 cells intravenously inoculated, compound i.v. (Example III); type: in vivo, Mice; settings: 30 days
# Description: as §1
# Mice were inoculated intravenously with P-388 cells (10^6 /0.2 ml) in a similar manner to that described above in Example II. […] Untreated mice and mice administered with Tween 80 were used for control purpose.
# [8] = Acute toxicity determination, intraperitoneal; set-up: species or system Mice (dd-strain); settings: mouse, in vivo, ip; dd mice, single i.p., 14 days, Behrens-Karber
# Description: as §1
# Mice [dd-strain; weight 20±1 g; each group consisted of 5 mice] were used for this experiment. An individual test solution was administered to each mouse by intraperitoneal injection. The test solutions (each 0.5 ml) were prepared by stepwise dilution.
# [9] = 5 mg/kg i.p., 4 days after inoculation
# [10] = 10 mg/kg i.p., 4 days after inoculation
# [11] = 20 mg/kg i.p., 4 days after inoculation
# [12] = 5 mg/kg i.p. once, determined after 30 days
# [13] = 5 mg/kg i.p. once, determined after 60 days
# [14] = 10 mg/kg i.p. once, determined after 30 days
# [15] = 10 mg/kg i.p. once, determined after 60 days
# [16] = 15 mg/kg i.p. once, determined after 30 days
# [17] = 15 mg/kg i.p. once, determined after 60 days
# [18] = 20 mg/kg i.p. once, determined after 30 days
# [19] = 20 mg/kg i.p. once, determined after 60 days
# [20] = 5 mg/kg i.p., tumor weighed 7 days after inoculation
# [21] = 10 mg/kg i.p., tumor weighed 7 days after inoculation
# [22] = 20 mg/kg i.p., tumor weighed 7 days after inoculation
smiles,measurement,setting,value
"CO[C@@]12[C@H](COC(N)=O)C3=C(C(=O)C(C)=C(Nc4ccccc4)C3=O)N1C[C@@H]1N[C@@H]12 [III, 7-N-phenyl mitomycin C, reference compound]",Average number of leucocytes,[1]; [9],81.4 ± 21.2 × 10^2 /mm^3
same,Average number of leucocytes,[1]; [10],60.8 ± 18.7 × 10^2 /mm^3
same,Average number of leucocytes,[1]; [11],31.8 ± 11.9 × 10^2 /mm^3
same,Average number of leucocytes,"[1]; 40 mg/kg i.p., death symbol in place of count",D*
same,minimum inhibitory concentration,[2],< 0.025
same,minimum inhibitory concentration,[3],1.563
same,minimum inhibitory concentration,[4],< 0.025
same,minimum inhibitory concentration,[5],0.098
same,Average survival days,P-388 cells [6]; [12],17.84 ± 1.2 days
same,ILS % (increase in life span),P-388 cells [6]; [12],82%
same,Number of survivors,P-388 cells [6]; [12],0/5
same,Average survival days,P-388 cells [6]; [13],17.8 ± 1.2 days
same,ILS % (increase in life span),P-388 cells [6]; [13],82%
same,Number of survivors,P-388 cells [6]; [13],0/5
same,Average survival days,P-388 cells [6]; [14],21.8 ± 4.3 days
same,ILS % (increase in life span),P-388 cells [6]; [14],122%
same,Number of survivors,P-388 cells [6]; [14],1/5
same,Average survival days,P-388 cells [6]; [15],22.04 ± 4.6 days
same,ILS % (increase in life span),P-388 cells [6]; [15],124%
same,Number of survivors,P-388 cells [6]; [15],0/5
same,Average survival days,P-388 cells [6]; [16],21.2 ± 2.8 days
same,ILS % (increase in life span),P-388 cells [6]; [16],116%
same,Number of survivors,P-388 cells [6]; [16],0/5
same,Average survival days,P-388 cells [6]; [17],21.2 ± 2.8 days
same,ILS % (increase in life span),P-388 cells [6]; [17],116%
same,Number of survivors,P-388 cells [6]; [17],0/5
same,Average survival days,P-388 cells [6]; [18],21.6 ± 4.4 days
same,ILS % (increase in life span),P-388 cells [6]; [18],120%
same,Number of survivors,P-388 cells [6]; [18],1/5
same,Average survival days,P-388 cells [6]; [19],21.8 ± 4.8 days
same,ILS % (increase in life span),P-388 cells [6]; [19],122%
same,Number of survivors,P-388 cells [6]; [19],0/5
same,solubility in water,Solubility in water,low solubility in water
same,T/C (tumor weight ratio),Sarcoma 180 cells; [20],0.84
same,T/C (tumor weight ratio),Sarcoma 180 cells; [21],0.59
same,T/C (tumor weight ratio),Sarcoma 180 cells; [22],0.21
same,T/C (tumor weight ratio),"Sarcoma 180 cells; 40 mg/kg i.p., death symbol in place of T/C",D*
same,Average survival days,P-388 cells [7]; 5 mg/kg i.v. once,11.4 ± 1.4 days
same,ILS %,P-388 cells [7]; 5 mg/kg i.v. once,33%
same,Average survival days,P-388 cells [7]; 10 mg/kg i.v. once,13.6 ± 1.4 days
same,ILS %,P-388 cells [7]; 10 mg/kg i.v. once,54%
same,Average survival days,P-388 cells [7]; 15 mg/kg i.v. once,15.8 ± 1.5 days
same,ILS %,P-388 cells [7]; 15 mg/kg i.v. once,84%
same,Average survival days,P-388 cells [7]; 20 mg/kg i.v. once,18.0 ± 1.7 days
same,ILS %,P-388 cells [7]; 20 mg/kg i.v. once,109%
same,Average survival days,P-388 cells [7]; 30 mg/kg i.v. once,10.0 ± 2.3 days
same,ILS %,P-388 cells [7]; 30 mg/kg i.v. once,16%
"CO[C@@]12[C@H](COC(N)=O)C3=C(C(=O)C(C)=C(Nc4ccc(N)cc4)C3=O)N1C[C@@H]1N[C@@H]12 [V, 7-N-(p-aminophenyl)-mitomycin C]",LD50 at 336 h,[8],18 mg/kg
same,Average number of leucocytes,[1]; [9],58.2 ± 17.1 × 10^2 /mm^3
same,Average number of leucocytes,[1]; [10],34.2 ± 11.2 × 10^2 /mm^3
same,Average number of leucocytes,[1]; [11],24.0 ± 10.2 × 10^2 /mm^3
same,Average number of leucocytes,"[1]; 40 mg/kg i.p., 4 days after inoculation",13.6 ± 4.6 × 10^2 /mm^3
same,minimum inhibitory concentration,[2],< 0.025
same,minimum inhibitory concentration,[3],3.125
same,minimum inhibitory concentration,[4],< 0.025
same,minimum inhibitory concentration,[5],0.049
same,Average survival days,P-388 cells [6]; [12],20.0 ± 3.0 days
same,ILS % (increase in life span),P-388 cells [6]; [12],104%
same,Number of survivors,P-388 cells [6]; [12],0/5
same,Average survival days,P-388 cells [6]; [13],20.0 ± 3.0 days
same,ILS % (increase in life span),P-388 cells [6]; [13],104%
same,Number of survivors,P-388 cells [6]; [13],0/5
same,Average survival days,P-388 cells [6]; [14],24.6 ± 2.9 days
same,ILS % (increase in life span),P-388 cells [6]; [14],151%
same,Number of survivors,P-388 cells [6]; [14],1/5
same,Average survival days,P-388 cells [6]; [15],26.4 ± 6.4 days
same,ILS % (increase in life span),P-388 cells [6]; [15],169%
same,Number of survivors,P-388 cells [6]; [15],0/5
same,Average survival days,P-388 cells [6]; [16],21.6 ± 6.4 days
same,ILS % (increase in life span),P-388 cells [6]; [16],120%
same,Number of survivors,P-388 cells [6]; [16],1/5
same,Average survival days,P-388 cells [6]; [17],21.8 ± 6.7 days
same,ILS % (increase in life span),P-388 cells [6]; [17],122%
same,Number of survivors,P-388 cells [6]; [17],0/5
same,Average survival days,P-388 cells [6]; [18],18.4 ± 6.1 days
same,ILS % (increase in life span),P-388 cells [6]; [18],88%
same,Number of survivors,P-388 cells [6]; [18],1/5
same,Average survival days,P-388 cells [6]; [19],24.4 ± 17.9 days
same,ILS % (increase in life span),P-388 cells [6]; [19],149%
same,Number of survivors,P-388 cells [6]; [19],1/5
same,solubility in water,Solubility in water,low solubility in water
same,T/C (tumor weight ratio),Sarcoma 180 cells; [20],0.71
same,T/C (tumor weight ratio),Sarcoma 180 cells; [21],0.37
same,T/C (tumor weight ratio),Sarcoma 180 cells; [22],0.24
same,T/C (tumor weight ratio),"Sarcoma 180 cells; 40 mg/kg i.p., tumor weighed 7 days after inoculation",0.09
same,Average survival days,P-388 cells [7]; 5 mg/kg i.v. once,14.0 ± 0 days
same,ILS %,P-388 cells [7]; 5 mg/kg i.v. once,63%
same,Average survival days,P-388 cells [7]; 10 mg/kg i.v. once,17.8 ± 1.9 days
same,ILS %,P-388 cells [7]; 10 mg/kg i.v. once,107%
same,Average survival days,P-388 cells [7]; 15 mg/kg i.v. once,23.0 ± 1.7 days
same,ILS %,P-388 cells [7]; 15 mg/kg i.v. once,167%
same,Average survival days,P-388 cells [7]; 20 mg/kg i.v. once,15.8 ± 5.4 days
same,ILS %,P-388 cells [7]; 20 mg/kg i.v. once,84%
same,Average survival days,P-388 cells [7]; 30 mg/kg i.v. once,8.4 ± 1.0 days
same,ILS %,P-388 cells [7]; 30 mg/kg i.v. once,-2%
